According to US20230065799A1, “METHOD FOR ATTRIBUTING OLFACTORY TONALITIES TO OLFACTORY RECEPTOR ACTIVATION AND METHODS FOR IDENTIFYING COMPOUNDS HAVING THE ATTRIBUTED TONALITIES” (FIRMENICH SA, priority 2019, published 2023):
Blank lines part the entries; values can stand above or below the compound they belong to.

Columns and labels:
[1] = target: T1, OR7A17 (Homo sapiens, UniProt O14581); assay: OR7A17 cell-based cAMP HTRF assay; details: dose-response, 100% = full agonist
T1 construct: Lucy (cleavable signal peptide) (N); FLAG (N); Rho (first 20 aa of bovine rhodopsin) (N); expressed in transfected cells
T1 sequence (O14581 1-309): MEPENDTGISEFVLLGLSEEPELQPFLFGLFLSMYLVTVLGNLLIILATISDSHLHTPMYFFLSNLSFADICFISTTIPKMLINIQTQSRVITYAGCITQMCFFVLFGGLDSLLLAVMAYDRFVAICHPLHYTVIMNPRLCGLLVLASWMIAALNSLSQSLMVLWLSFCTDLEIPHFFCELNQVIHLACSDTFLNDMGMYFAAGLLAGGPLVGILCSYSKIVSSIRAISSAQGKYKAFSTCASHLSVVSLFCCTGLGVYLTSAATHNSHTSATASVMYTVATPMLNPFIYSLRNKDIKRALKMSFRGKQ

[2] = target: T2, OR11A1 (Homo sapiens, UniProt Q9GZK7); assay: OR11A1 cell-based cAMP HTRF assay in HEK293T cells; details: for Emax: HEK-293T, read-out: OR11A1 % Efficacy; for Emax / OR11A1 % Efficacy: dose-response, 100% = full agonist
T2 construct: FLAG (N); Rho (first 20 aa of bovine rhodopsin) (N); expressed in transfected cells
T2 sequence (Q9GZK7 1-315): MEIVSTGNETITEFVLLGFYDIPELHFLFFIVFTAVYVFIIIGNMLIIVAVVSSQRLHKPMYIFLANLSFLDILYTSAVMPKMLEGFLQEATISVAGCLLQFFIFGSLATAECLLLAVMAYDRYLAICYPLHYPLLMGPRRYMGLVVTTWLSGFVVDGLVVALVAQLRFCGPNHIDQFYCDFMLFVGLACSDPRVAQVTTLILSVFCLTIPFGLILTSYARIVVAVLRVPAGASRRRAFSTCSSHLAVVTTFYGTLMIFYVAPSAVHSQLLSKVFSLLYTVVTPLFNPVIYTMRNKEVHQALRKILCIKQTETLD
Procedure: The molecular receptive range of the human odorant receptor OR11A1 (SEQ ID NO. 11) was tested by performing a large scale screening with a chemically and organoleptically diverse volatile compound library comprising approximately 800 compounds. Using a cell-based assay, OR11A1 was tested in an HEK293T cell line wherein the endogenous RTP1 gene has been activated and the odorant receptor chaperone was expressed (WO2016/201153 A1). Cells were co-transfected with the Flag-Rho-tagged receptor and the canonical olfactory G-protein Golf, and exposed to a single concentration of each test compound, tested individually. Receptor activity was detected by measuring the cAMP increase in the cytosol using an HTRF (Homogenous Time-Resolved Fluorescence unit) based kit (CisBio, cAMP dynamic 2 kit, 62AM4PEJ).
First, 300 mM stock solutions for 798 test compounds were made in pure DMSO. The stock solutions for each compound were further diluted to a final test concentration of 300 μM. The final concentration of DMSO was 0.1%, and had no visible effect on the cells. Each compound was presented to a cell line expressing the OR11A1 olfactory receptor. The quality of this high-throughput screening (HTS) process was determined and the window variability and signal reliability were assessed by calculating the Z′ value of each plate (the average Z′ value per plate was 0.72±0.12, well within the required quality standards between 0.5 and 1). The result of this single concentration activation screen is shown in FIG. 3, where hits are highlighted in light grey dots.
In a subsequent step using the same cell-based assay described above, the candidate hits were confirmed to be true agonists (activators) by performing dose-response experiments as shown in FIG. 4 for a subset of the best hits. […] Both sensitivity (potency) and activation strength (efficacy) were calculated from the curves, as a measure of EC50 (the concentration required to reach half-maximal activation level) and Span (the assay window span between baseline activity level and activation saturation plateau), respectively. These values were used to represent the molecular receptive range of OR11A1 according to the potency (X axis) and efficacy (Y axis) in FIG. 5. A partial agonist, Tonalide, is also listed. The […] agonists cover distinct perfumery tonalities: woody (Patchouli Alcohol), musky (Vulcanolide, Tonalide), and camphorous (Fenchyl Alcohol), Table 2. Taken together, the data depict the diversity of both the organoleptic tonalities and chemical structures of compounds capable of activating OR11A1, congruent with results described in WO2016/201152 A1 (musk) and EP2832347A1.(patchouli). The OR11A1 activity however was not associated with the tonalities of musk (WO2016/201152 A1) or patchouli (EP2832347A1) specifically but rather the earthy facet thereof. In fact, the single commonality between these compounds was the earthy tonality, which is semantically captured by the following descriptors: earthy, humus and earthy-moss. These compounds are neither all musks nor patchouli but they all are earthy.

[3] = target: T3, OR5AU1 (Homo sapiens, UniProt Q8NGC0); assay: OR5AU1 cell-based cAMP HTRF assay; details: for Active OR/Linked Tonality: OR5AU1 (Lactonic Coconut): receptor listed = activated by the compound; for Emax: read-out: OR5AU1 % Efficacy
T3 construct: Lucy (cleavable signal peptide) (N); FLAG (N); Rho (first 20 aa of bovine rhodopsin) (N); expressed in transfected cells
T3 sequence (Q8NGC0 52-362): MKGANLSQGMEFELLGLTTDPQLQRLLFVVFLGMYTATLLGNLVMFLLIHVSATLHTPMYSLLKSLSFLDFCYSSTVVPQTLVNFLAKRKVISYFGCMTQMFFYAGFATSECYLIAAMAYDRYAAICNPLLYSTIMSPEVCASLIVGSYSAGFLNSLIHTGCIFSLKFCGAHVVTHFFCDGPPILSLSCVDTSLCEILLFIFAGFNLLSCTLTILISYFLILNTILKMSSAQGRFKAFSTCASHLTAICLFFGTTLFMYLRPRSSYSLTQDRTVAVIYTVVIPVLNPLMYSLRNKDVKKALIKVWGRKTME

[4] = target: T4, OR8B3 (Homo sapiens, UniProt Q8NGG8); assay: OR8B3 cell-based cAMP HTRF assay; details: dose-response, 100% = full agonist; for Emax: read-out: OR8B3 % Efficacy
T4 construct: Lucy (cleavable signal peptide) (N); FLAG (N); Rho (first 20 aa of bovine rhodopsin) (N); expressed in transfected cells
T4 sequence (Q8NGG8 1-313): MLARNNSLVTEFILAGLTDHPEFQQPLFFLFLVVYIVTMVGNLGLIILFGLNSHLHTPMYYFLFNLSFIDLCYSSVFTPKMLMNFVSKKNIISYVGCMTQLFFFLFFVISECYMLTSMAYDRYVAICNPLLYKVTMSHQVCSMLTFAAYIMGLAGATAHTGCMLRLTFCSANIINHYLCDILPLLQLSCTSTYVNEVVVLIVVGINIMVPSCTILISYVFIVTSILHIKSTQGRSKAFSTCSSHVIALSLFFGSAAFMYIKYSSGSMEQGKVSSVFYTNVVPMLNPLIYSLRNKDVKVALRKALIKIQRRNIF

[5] = target: T5, OR5A1 (Homo sapiens, UniProt Q8NGJ0); assay: OR5A1 cell-based cAMP HTRF assay; details: dose-response, 100% = full agonist; for Emax: read-out: OR5A1 % Efficacy
T5 construct: Lucy (cleavable signal peptide) (N); FLAG (N); Rho (first 20 aa of bovine rhodopsin) (N); expressed in transfected cells
T5 sequence (Q8NGJ0 1-315): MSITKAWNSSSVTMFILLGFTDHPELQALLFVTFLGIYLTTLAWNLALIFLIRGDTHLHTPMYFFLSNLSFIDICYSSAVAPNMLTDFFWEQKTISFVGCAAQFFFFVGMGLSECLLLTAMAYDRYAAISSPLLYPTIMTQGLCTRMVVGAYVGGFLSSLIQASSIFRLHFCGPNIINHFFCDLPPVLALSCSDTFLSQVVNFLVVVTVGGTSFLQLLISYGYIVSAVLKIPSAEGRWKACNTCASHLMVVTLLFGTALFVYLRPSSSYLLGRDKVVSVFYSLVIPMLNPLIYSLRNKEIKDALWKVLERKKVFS

[6] = dose-response, 100% = full agonist

Compound: 1-(2,3,8,8-tetramethyl-1,3,4,6,7,8~{a}-hexahydronaphthalen-2-yl)ethanone; 1-(2,3,8,8-tetramethyl-1,3,5,6,7,8~{a}-hexahydronaphthalen-2-yl)ethanone; 1-(2,3,8,8-tetramethyl-1,3,4,5,6,7-hexahydronaphthalen-2-yl)ethanone [Derambrene]
OR7A17 % Efficacy [1]: 83%

Compound: CC1CCCC2(C)CCCCC12O (centres unmarked) [Geosmin, (4~{S},8~{a}~{R})-4,8~{a}-dimethyl-1,2,3,4,5,6,7,8-octahydronaphthalen-4~{a}-ol]
Emax [2]: 100%

Compound: O=c1ccc2ccccc2o1 [Coumarin, chromen-2-one]
Emax [4]: 95%

Compound: CCCCC1CCC(=O)O1 (centres unmarked) [Gamma Octalactone, 5-butyloxolan-2-one]
Active OR/Linked Tonality: OR5AU1 (Lactonic Coconut) [3]: OR5AU1/ | Emax [4]: 100%

Compound: CC1(C)CCCC(C)(C)C1=O [2,2,6,6-tetramethyl-1-cyclohexanone]
OR11A1 agonism in dose-response experiments [2]: did not yield any significant dose-response

Compound: C[C@@H]1[C@@H]2C[C@H](C[C@]13C=CC(=O)CC3)C2(C)C [Wolfwood, (1~{S},2~{R},3~{R},5~{R})-2,6,6-trimethylspiro[bicyclo[3.1.1]heptane-3,4′-cyclohex-2-ene]-1′-one]
OR7A17 % Efficacy [1]: 100%

Compound: 4-(2,6,6-trimethylcyclohexen-1-yl)but-3-en-2-one; 4-(2,6,6-trimethylcyclohex-2-en-1-yl)but-3-en-2-one [Violette AT]
OR5A1 % Efficacy [5]: 78%

Compound: 9-ethylidene-3-oxatricyclo[6.2.1.0^{2,7}]undecan-4-one; 10-ethylidene-3-oxatricyclo[6.2.1.0^{2,7}]undecan-4-one [Florex]
OR8B3 % Efficacy [4]: 74%

Compound: CCCCCC1CCCC(=O)O1 (centres unmarked) [Delta decalactone, 6-pentyloxan-2-one]
Emax [3, 6]: 88%

Compound: CCCCCCC1CCC(=O)O1 (centres unmarked) [Gamma Decalactone, 5-hexyloxolan-2-one]
Active OR/Linked Tonality: OR5AU1 (Lactonic Coconut) [3]: OR5AU1/

Compound: CC=CCCC1CCCC(=O)O1 (centres unmarked) [Delta Jasmolactone, 6-pent-3-enyloxan-2-one]
Emax [3, 6]: 92% | Active OR/Linked Tonality: OR5AU1 (Lactonic Coconut) [3]: OR5AU1/

Compound: CCCCCC1CCCC1=O (centres unmarked) [Delphone, 2-pentylcyclopentan-1-one]
Emax [3, 6]: 80%

Compound: CC12CCC(C1)C(C)(C)C2O (centres unmarked) [Fenchyl Alcohol, (1~{R},2~{R},4~{S})-1,3,3-trimethylbicyclo[2.2.1]heptan-2-ol]
Emax [2]: 86%

Compound: CC(=O)c1cc2c(cc1C)C(C)(C)C(C)CC2(C)C (centres unmarked) [Tonalide, 1-(3,5,5,6,8,8-hexamethyl-6,7-dihydronaphthalen-2-yl)ethanone]
OR11A1 agonism in dose-response experiments [2]: weak (partial) agonist | Emax [2]: 21%

Other lines, results leading:

OR5AU1 % Efficacy [3, 6]: 100%
Compound: CCCCC[C@H]1OC(=O)C[C@H]1C [Tuberolide Ht, (4~{R},5~{R})-4-methyl-5-pentyloxolan-2-one]

Emax ([1]; read-out: OR7A17 % Efficacy): 65%
Compound: CC(=O)/C(C)=C/C1C(C)=CCCC1(C)C (racemic) [Methyl ionone gamma, (+−)-(e)-3-methyl-4-(2,6,6-trimethyl-2-cyclohexen-1-yl)-3-buten-2-one]

OR7A17 % Efficacy [1]: 74%
Compound: 1-(4,8-dimethyl-12-methylidenecyclododeca-4,8-dien-1-yl)ethanone; 1-(2,6,10-trimethylcyclododeca-1,5,9-trien-1-yl)ethanone; 1-(2,6,10-trimethylcyclododeca-2,5,9-trien-1-yl)ethanone [Trimofix]

OR8B3 % Efficacy [4]: 77%
Compound: CC1(C)[C@H]2C[C@H]3CCC(=O)C=C3[C@@H]1C2 [Tricyclone, (1~{R},7~{R},9~{S})-10,10-dimethyltricyclo[7.1.1.0^{2,7}]undec-2-en-4-one]

Active OR/Linked Tonality: OR5AU1 (Lactonic Coconut) [3]: OR5AU1/ | Emax [4]: 97%
Compound: CCCCC1CCCC(=O)O1 (centres unmarked) [Nonalactone Delta, 6-butyloxan-2-one]

Active OR/Linked Tonality: OR5AU1 (Lactonic Coconut) [3]: OR5AU1/
Compound: CCCC1CCCC(=O)O1 (centres unmarked) [Octalactone Delta, 6-propyloxan-2-one]

Emax [5]: 91%
Compound: CC(=O)C=CC1=C(C)CCC(C)C1(C)C (stereo not drawn) [Irone beta, 4-(2,5,6,6-tetramethylcyclohexen-1-yl)but-3-en-2-one]

Emax [5]: 82%
Compound: CCC(=O)C=CC1=C(C)CCCC1(C)C [Methylionone beta, 1-(2,6,6-trimethylcyclohexen-1-yl)pent-1-en-3-one]

OR11A1 % Efficacy [2]: 83%
Compound: C[C@@H]1CC[C@]2(O)C(C)(C)[C@H]3CC[C@@]2(C)[C@@H]1C3 [Patchouli Alcohol, (1~{S},3~{S},6~{R},7~{R},8~{S})-2,2,6,8-tetramethyltricyclo[5.3.1,0^{3,8}]undecan-3-ol]

Active OR/Linked Tonality: OR5AU1 (Lactonic Coconut) [3]: OR5AU1/ | Emax [4]: 88%
Compound: CCCCC1OC(=O)CC1C (centres unmarked) [Whiskey Lactone K, 5-butyl-4-methyloxolan-2-one]

OR8B3 % Efficacy [4]: 95%
Compound: O=C1CCC2CCCCC2O1 (centres unmarked) [Octahydrocoumarine, 3,4,4~{a},5,6,7,8,8~{a}-octahydrochromen-2-one]

OR11A1 % Efficacy [2]: 89%
Compound: Cc1cc2c(cc1C=O)C(C)(C)[C@H](C)[C@@H](C)C2(C)C [Vulcanolide, (6~{R},7~{R})-3,5,5,6,7,8,8-heptamethyl-6,7-dihydronaphthalene-2-carbaldehyde]

OR7A17 % Efficacy [1]: 82%
Compound: CC1(C)CCC[C@]2(C)CC(=O)CC[C@@H]12 [Z-95, (4~{a}~{S},8~{a}~{R})-5,5,8~{a}-trimethyl-3,4,4~{a},6,7,8-hexahydro-1~{H}-naphthalen-2-one]
